In US9296710B2, “Bicyclo (3.1.0) hexane-2, 6-dicarboxylic acid derivatives as mGlu2 receptor agonist” (Eli Lilly and Company, priority 2011, dated 2016):
Where a name gives a salt, the structure may show the parent alone.

Experiments:
[1] = system: PCP-induced hyperlocomotor activity in mice; assay: Reversal of Phencyclidine (PCP)-Induced Hyperlocomotor Activity in Mice; assay type: in vivo, mouse
Description: This assay for Reversal of Phencyclidine (PCP)-Induced Hyperlocomotor Activity in Mice is run substantially as the Reversal of Phencyclidine (PCP)-Induced Hyperlocomotor Activity in Rats assay provided above, using mice instead of rats and with the changes noted below.
Motor activity is monitored by placing individual male, ICR (CD-1), (Harlan, Indianapolis, Ind.) mice in transparent, plastic shoe-box cages of the dimensions 45×25×20 cm, with 0.5 cm depth of wood chips as bedding, and plastic lid on top of the cage. Motor monitors (Kinder Scientific) consist of a rectangular rack of 12 photobeams arranged in an 8×4 formation, (or a high density grouping of 22 in a 15×7 pattern) at a height of 2.5 cm. The shoe box cage is placed inside of these racks, with the racks on a 3 foot high tabletop in an isolated room. A compound of the present invention is dosed (intraperitoneal route, non-prodrug) usually within a range of 0.3-30 mg/kg; though higher doses may be used, 30 minutes prior to a 7.5 mg/kg challenge dose of phencyclidine (PCP). On the test day, mice are placed in the test cage and allowed to acclimate for 45 minutes prior to PCP challenge; mice are monitored for an additional 60 minutes following PCP administration.
Power analyses have determined that 7-8 mice per group are needed to have appropriate statistical power for detecting treatment differences (power=0.8).

[2] = system: immobility in forced swim test in mice; assay: Forced Swim Test in Rodents (mice); assay type: in vivo, mouse; conditions: for ED60 (60% of the amount of immobility relative to vehicle controls): intraperitoneal dosing 60 min prior to testing
Experimental: In this assay, mechanisms with purported antidepressant-like activity decrease immobility in a brief inescapable forced swim episode.
The forced-swim test was conducted in mice (male, NIH-Swiss mice, 20-25 g, Harlan Sprague-Dawley, Indianapolis, Ind.). Mice are placed in clear plastic cylinders (diameter 10 cm; height: 25 cm) filled to 6 cm with 22-25° C. water for six min. The duration of immobility is recorded during the last 4 min of a six-minute trial. The compounds of Examples 2, 3, 8, 11, and 12 are tested following intraperitoneal dosing, 60 min prior to testing. Imipramine is used as a positive control for these studies. Compounds are formulated in a water vehicle, with minimal NaOH added. The amount of time spent immobile (defined as movements only necessary to keep the subject's head above water) is the dependent measure and recorded by an observer blinded to the drug treatment of the subjects. Data are analyzed by post-hoc Dunnett's test with alpha level set at 0.05.

[3] = In Vitro Intestinal Prodrug Hydrolysis Assay; assay type: in vitro ADME; conditions: 1 h, 10 µM, pH 7.4
Experimental: Frozen human duodenum intestinal homogenates (1:2 tissue:buffer ratio using 100 mM Tris Phosphate buffer, pH 7.4) are obtained from Celsius In Vitro Technologies (Baltimore, Md.) that were both phenylmethylsulphonylfluoride (PMSF) and EDTA free.
Each lot of human duodenum is obtained from a single donor and the intestine is scraped and the sections are frozen separate. All original tissue collections are performed at 4° C. and immediately frozen at −70° C.
Hydrolysis of the positive control, Internal Prodrug Compound A to Internal Compound Drug A, run in every batch averaged 75.3% (n=20). Final values are then normalized relative to the formation of Internal Compound Drug A.

PepT1 = molecular target: T1, PepT1 (Homo sapiens, UniProt P46059); assay: In Vitro PepT1 GlySar Inhibition Screen; assay type: cell-based; conditions: prodrug at 5 mM, pH 6.0, PepT1 transiently transfected HeLa cells, 5 μM [14C]Gly-Sar and 20 μM cold Gly-Sar; read-out: Mean GlySar Uptake Inhibition %
T1 construct: expressed in transfected cells; host or cells: HeLa cells (ATCC), transient transfection with FUGENE6
T1 sequence (P46059 1-708): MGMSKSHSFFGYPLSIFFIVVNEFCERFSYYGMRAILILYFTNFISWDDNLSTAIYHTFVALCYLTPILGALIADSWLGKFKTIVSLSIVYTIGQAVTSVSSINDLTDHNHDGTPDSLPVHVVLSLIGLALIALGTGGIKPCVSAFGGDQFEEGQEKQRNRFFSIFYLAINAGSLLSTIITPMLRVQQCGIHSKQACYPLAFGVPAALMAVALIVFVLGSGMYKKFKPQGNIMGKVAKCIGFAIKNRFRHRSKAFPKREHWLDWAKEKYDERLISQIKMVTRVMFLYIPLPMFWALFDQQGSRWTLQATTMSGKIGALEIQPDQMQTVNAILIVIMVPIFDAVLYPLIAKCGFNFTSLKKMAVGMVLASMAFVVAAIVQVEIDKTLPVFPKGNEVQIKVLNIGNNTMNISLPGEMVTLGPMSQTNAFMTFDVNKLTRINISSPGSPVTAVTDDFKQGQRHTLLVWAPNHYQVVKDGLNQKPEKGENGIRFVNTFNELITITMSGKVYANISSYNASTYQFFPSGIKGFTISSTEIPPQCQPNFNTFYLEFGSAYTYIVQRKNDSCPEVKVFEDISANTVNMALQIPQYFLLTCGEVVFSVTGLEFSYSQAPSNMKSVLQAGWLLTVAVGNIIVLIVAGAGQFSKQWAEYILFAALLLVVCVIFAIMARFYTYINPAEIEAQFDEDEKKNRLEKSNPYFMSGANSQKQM
Experimental: PepT1 assays are established to examine the ability of the amino acid prodrug compounds to interact with the intestinal absorption transporter PepT1.
HeLa cells, derived from human cancer cells, (American Type Culture Collection) are grown in Hyclone Medium (Invitrogen, Cat# SH30243) containing 10% fetal bovine serum (FBS), 0.1 mM non essential amino acids (NEAA), and 100 units/mL penicillin with 100 μg/mL streptomycin at 37° C. in a 5% CO2 humidified atmosphere. The cell line is used for up to 40 passages and then discarded. Frozen cells in 1 mL vials are thawed in water bath for 1-2 minutes and added to 5 mL of cell medium at 37° C. Each of the T-flasks is provided with 8.5 mL of the fresh medium and 1.5 mL of the cell stock. Cells are passaged twice during a week. […] Each new flask receives a combination of 8.5 mL of fresh medium and 1.5 mL of cell stock, in order to obtain 1:6 cell dilution. Cells are incubated at 37° C., until ready for the uptake study.
Cells that are 70-80% confluent in the T-flasks are plated 1 day prior to the transfection procedure. The flask with the cell stock is treated with PBS-EDTA and trypsin to detach the cells, and transfection medium is used from this point. Transfection medium consists of Dulbecco's Modified Eagle Medium (DMEM)+NEAA. To each well, 0.5 mL of the cell mixture is added (1.3×10^5 is the desired cell concentration) and the cells are incubated at 37° C. overnight. Twenty four hours before the assay, cells are transfected with PEPT1. Transfection mixture is prepared by mixing 600 μL of serum free transfection medium, 18 μL of FUGENE6® (Roche Diagnostics), and 11 μg of the PepT1 DNA. The transfection reagent-DNA complex is incubated for 20 minutes and 24 μL of the reagent-DNA complex is added to each well.
Inhibition of PEPT1-mediated [glycyl-1-2-^14C]Glyclysarcosine (GlySar) uptake activity is measured in the cells cultured in the 24-well plates 24-hours post transfection as previously published (Zhang et al. 2004. J. Pharm. Exper Ther. 310:437-445). To measure the ability of a compound of the present invention to inhibit the uptake of [^14C]Gly-Sar, prodrug compounds are incubated with 80 to 90% confluent PepT1 transiently transfected HeLa cells at 5 mM in pH 6.0 uptake medium in the presence of 5 μM [^14C]Gly-Sar (Moravek Biochemicals) and 20 μM cold Gly-Sar. Uptake media consists of 140 mM NaCl, 5.4 mM KCl, 1.8 mM CaCl2, 0.8 mM MgSO4, 5 mM Glucose, 25 mM tris(hydroxymethyl)aminomethane buffer (TRIS). The solution is then brought to pH 6.0 using 2-(N-morpholino)ethanesulfonic acid. The incubation volume is 500 μL and is performed at room temperature for 3 minutes. To stop the uptake at the conclusion of the incubation time, the uptake media is aspirated off of the cell monolayer and 500 μL of ice cold PBS added to the well. The cells are washed 3 times with 500 μL of room temperature PBS without Ca^+2 and Mg^+2. The cells are then lysed with 300 μL of 1% TRITON® X100 H2O solution. A 200 μL aliquot is removed and radioactivity is determined by liquid scintillation counting to measure the [^14C]Gly-Sar present in each of the incubation wells. A no inhibitor control is established and the percent inhibition of each prodrug is calculated with respect to this control.

[4] = system: stress-induced hyperthermia in rats; assay: Attenuation of Stress-Induced Hyperthermia in Rats; assay type: in vivo, rat; conditions: i.p., 3 mg/kg
Description: In many anxiety disorders, hyperthermia occurs as part of the pathology and is considered a symptom of the disease. Compounds which attenuate stress-induced hyperthermia in animals are believed to be useful in treating anxiety disorders in humans. Generalized anxiety disorder is an example of such disorders that may be treated with such compounds. The conventional and minimally-invasive method for analyzing stress-induced hyperthermia is by measuring body temperature, and stress-induced increases in body temperature, via rectal thermometer. Male Fischer F-344 rats (Harlan, Indianapolis, Ind., USA) weighing between 275-350 g are tested. All animals are individually-housed with food and automated water available ad libitum, and maintained on a 12 h light/dark cycle (lights on at 06:00) Animals are fasted for approximately 12-18 hours before the experiment, which is conducted during the light phase. Rats are dosed one hour prior to the experiment by intraperitoneal (i.p.) route of administration in a dose volume of 1 mL/kg. The vehicle used was water with enough NaOH added to achieve a pH between 5-7. The mGluR5 antagonist MTEP (3-[(2-methyl-1,3-thiazol-4-yl)ethynyl]pyridine) and mGlu2/3 agonist LY317206 were used as quality controls, given that they produced reliable efficacy in this model Immediately following dosing, rats are returned to their home cage, and the experimenter turns off the lights and leaves the room. The dosing room is darkened for the remainder of the 1-hr pretreatment period.
After the pretreatment period, rats are taken individually to a brightly lit adjacent room where baseline body temperatures are determined by insertion of a rectal probe lubricated with mineral oil. Body temperature is assessed using a […] BAT-12® Microprobe Thermometer with a […] RET-2® rat rectal probe (Physitemp Instruments Inc., Clifton, N.J., USA). The probe is inserted approximately 2 cm into the rectum, to measure the core body temperature (this is the baseline body temperature, T1, in degrees Celsius). Ten minutes later a second body temperature measurement is recorded (T2). […]

Cl.N[C@@]1(C(=O)O)C[C@@H](Sc2nnc(C(F)F)[nH]2)[C@H]2[C@H](C(=O)O)[C@H]21 [Example 8, (1R,2S,4R,5R,6R)-2-Amino-4-(5-difluoromethyl-1H-[1,2,4]triazol-3-ylsulfanyl)-bicyclo[3.1.0]hexane-2,6-dicarboxylic acid hydrochloride]
reversal of PCP-induced locomotor activity ([1]; single dose of 10 mg/kg): 52%
ED60 (60% of the amount of immobility relative to vehicle controls) [2]: 7.95 mg/kg

Cl.NCC(=O)N[C@@]1(C(=O)O)C[C@@H](Sc2nnc(C(F)(F)F)[nH]2)[C@H]2[C@H](C(=O)O)[C@H]21 [Example 18, (1R,2S,4R,5R,6R)-2-(glycylamino)-4-{[5-(trifluoromethyl)-1H-1,2,4-triazol-3-yl]sulfanyl}bicyclo[3.1.0] hexane-2,6-dicarboxylic acid hydrochloride]
In Vitro Human Intestinal Hydrolysis % (relative to positive control) [3]: 65.5%

CSCC[C@H](N)C(=O)N[C@@]1(C(=O)O)C[C@@H](Sc2nnc(C(F)(F)F)[nH]2)[C@H]2[C@H](C(=O)O)[C@H]21.Cl [Example 17, (1R,2S,4R,5R,6R)-2-((S)-2-Amino-4-methylsulfanyl-butyrylamino)-4-(5-trifluoromethyl-1H-[1,2,4]triazol-3-ylsulfanyl)-bicyclo[3.1.0]hexane-2,6-dicarboxylic acid hydrochloride]
In Vitro Human Intestinal Hydrolysis % (relative to positive control) [3]: 63.3%

N[C@@]1(C(=O)O)C[C@H](Sc2c[nH]nn2)[C@H]2[C@H](C(=O)O)[C@H]21 [Example 11, (1R,2S,4S,5R,6R)-2-Amino-4-(1H-triazol-4-ylsulfanyl)bicyclo[3.1.0] hexane-2,6-dicarboxylic acid hydrochloride]
ED50 ([1]; Mus musculus, i.p. administration, 30 minutes prior to 7.5 mg/kg PCP): 1.2 mg/kg
efficacy in forced swim test, second study ([2]; i.p., higher doses (3-30 mg/kg)): efficacy was lost
ED60 (60% of the amount of immobility relative to vehicle controls) [2]: 0.88 mg/kg

C[C@H](N)C(=O)N[C@@]1(C(=O)O)C[C@@H](Sc2cn[nH]n2)[C@H]2[C@H](C(=O)O)[C@H]21.Cl [Example 19, (1R,2S,4R,5R,6R)-2-[[(2S)-2-Aminopropanoyl]amino]4-(2H-1,2,3-triazol-4-ylsulfanyl)bicyclo[3.1.0] hexane-2,6-dicarboxylic acid hydrochloride]
In Vitro Human Intestinal Hydrolysis % (relative to positive control) [3]: 58.1%

CSCC[C@H](N)C(=O)N[C@@]1(C(=O)O)C[C@@H](Sc2cn[nH]n2)[C@H]2[C@H](C(=O)O)[C@H]21.Cl [Example 21, (1R,2S,4R,5R,6R)-2-((S)-2-Amino-4-methylsulfanyl-butyrylamino)-4-(2H-[1,2,3]triazol-4-ylsulfanyl)-bicyclo[3.1.0]hexane-2,6-dicarboxylic acid hydrochloride]
inhibition at 5000 µM (PepT1): 57.4%
In Vitro Human Intestinal Hydrolysis % (relative to positive control) [3]: 63.8%

Cc1nc(C#Cc2cccnc2)cs1 [MTEP, 3-[(2-methyl-1,3-thiazol-4-yl)ethynyl]pyridine, reference compound]
reduction of stress-induced hyperthermia [4]: 53%
